What was measured:
[1] = test system: alcohol consumption after deprivation; test: Alcohol deprivation effect model (EAD); type: in vivo, male Wistar rats; details: rat; for effect on alcohol consumption after deprivation (consumption curve versus control) / difference in area under curve versus control group N2/O2: EAD model; for effect on alcohol consumption after deprivation (consumption curve versus control): 50%/50% gas/O2, FIG. 2 and FIG. 3; for difference in area under curve versus control group N2/O2: 50%/50% gas/O2, control 16.34±0.9 g/kg*day; for area under curve of total ethanol consumption: two 1 hour inhalation exposures to 50%/50% gas/O2 mixture, consumption measured daily for 6 post-abstinence days, control N2/O2 16.34±0.9
From the text: The alcohol deprivation model (EAD) comprises habituating the animals to consumption of alcohol for a period of 8 weeks, followed by a period of deprivation of 2 weeks, during which alcohol was withdrawn. This cycle is repeated 8 times. After a period of deprivation, access to alcohol causes a significant but temporary increase in alcohol consumption compared to the reference level. This model is ideal for studying behavior during relapse. It was validated with nacamprosate and naltrexone.
The following experimental protocol was followed.
16 male Wistar rats have free and continuous access to 2 feeding bottles, one containing tap water and the other containing 5%, 10% and 20% ethanol (vol./ vol.) in their cages.
The first two-week deprivation period is introduced after 8 weeks of continuously available alcohol, as illustrated in FIG. 1.
After this deprivation period, the rats will have access to alcohol and again to at least 2 more randomly introduced periods of deprivation.
All the animals are divided into 2 groups (8 rats/group) so that for the mean baseline (week 23), the total alcohol consumption will be essentially the same in each group.
On the last day of week 25 at about 9 am, […] animals are exposed to the Xe/O2 (50%/50%) gaseous mixture for 1 hour.
The control group is exposed to N2/O2 (50%/50%). The following day at 9 am all the animals are exposed for a second time to these same gaseous mixtures for 1 hour.
The exposures to the gaseous mixture are represented by two arrows in FIG. 2.
Following this last exposure, the bottles of alcohol will again be offered (post-abstinence days).
Following exposures to the different gases, the total consumption of ethanol (g/kg of body weight) is measured daily at about 10 am, for 6 days.

[2] = test system: stimuli-induced alcoholic relapse; test: Stimuli-induced alcoholic relapse model; type: in vivo, male Wistar rats; details: rat, 1 hour gas exposure 24 hours and 3 hours before the relapse test, FIG. 5
Experimental: Another animal model well-established in the literature was used to evaluate the anti-relapse effects of xenon, namely the stimuli-induced alcoholic relapse model.
This model is based on the fact that taking drugs or alcohol capable of leading to dependence is associated with a number of environmental stimuli (auditory, olfactory, visual) which are themselves likely to lead to a relapse.
Briefly, the experiments were carried out in conditioning chambers equipped with 2 levers allowing the distribution of water or of alcohol.
24 male Wistar rats were used. The animals are trained to self-administer ethanol at 10% by volume during the course of daily sessions lasting 30 minutes.
During the conditioning phase, the animals are trained to distinguish between the availability of alcohol and of water. Stimulus 1 (orange extract) is the signal for availability of alcohol and each pressing of lever No.1 results in conditioned stimulus No.1 (flashing light) and the immediate distribution of alcohol (30 μl). Furthermore, lever No.2 remains unused during the “alcohol sessions” throughout the experiment.
Stimulus n° 2 (anise extract) will give the signal for availability of water during the “water sessions” and each pressing of lever No.2 results in the presentation of conditioned stimulus No.2 (constant light) and the distribution of water (30 μl). […]

[3] = test system: alcohol consumption following alcohol deprivation; details: alcohol-dependent rats; cited from earlier work

| Compound | effect on alcohol consumption after deprivation (consumption curve versus control) [1] | difference in area under curve versus control group N2/O2 [1] | area under curve of total ethanol consumption [1] | number of presses on the lever delivering the alcohol following exposure to stimulus-1, compared to control N2/O2 50%/50% [2] | effect on increase in alcohol consumption following alcohol deprivation [3] |
| --- | --- | --- | --- | --- | --- |
| [N-]=[N+]=O [N2O, nitrous oxide] | reduces this alcohol consumption to a much lesser extent | 1 | 15.34±1.3 g/kg*day | no significant effect |  |
| CC(=O)NCCCS(=O)(=O)O [acamprosate] |  |  |  |  | a reduction was noted in detrimental effects |
| [Xe] [xenon] | reduction in alcohol consumption | difference of two units | 14.28±1.3 g/kg*day | significant reduction |  |
